From ChEMBL document CHEMBL1158688, “Synthesis and characterization of the 7-(4-aminomethyl-1H-1,2,3-triazol-1-yl) analogue of kabiramide C” (J Nat Prod, 2005) come the findings set out here.

Calls of active or inactive are those of the source. The calls are words filed in the database; no cut-off is given here.

The species entered for this assay is Oryctolagus cuniculus. Put plainly: Binding affinity to rabbit Prodan-labeled G-actin.

`CO[C@H]([C@H](C)/C=C/N(C)C=O)[C@@H](C)C(=O)CC[C@H](C)[C@@H](C[C@@H]1OC(=O)CC(OC(N)=O)C[C@H](C)C[C@@H](n2cc(CNC(=O)OCC3c4ccccc4-c4ccccc43)nn2)[C@H](C)[C@@H](OC)c2coc(n2)-c2coc(n2)-c2coc(n2)/C=C/C[C@H](OC)[C@H]1C)OC` (stereo partly drawn): the result was Active. Consider `CO[C@H]([C@H](C)/C=C/N(C)C=O)[C@@H](C)C(=O)CC[C@H](C)[C@@H](C[C@@H]1OC(=O)CC(OC(N)=O)C[C@H](C)C[C@@H](n2cc(CN)nn2)[C@H](C)[C@@H](OC)c2coc(n2)-c2coc(n2)-c2coc(n2)/C=C/C[C@H](OC)[C@H]1C)OC` (stereo partly drawn), for which the outcome was Active. In the case of `CO[C@H]([C@H](C)/C=C/N(C)C=O)[C@@H](C)C(=O)CC[C@H](C)[C@@H](C[C@@H]1OC(=O)CC(OC(N)=O)C[C@H](C)C[C@@H](N=[N+]=[N-])[C@H](C)[C@@H](OC)c2coc(n2)-c2coc(n2)-c2coc(n2)/C=C/C[C@H](OC)[C@H]1C)OC` (stereo partly drawn) it was “Active”.
